Assays:
Test in all cases: cells
Assay type in all cases: cell-based
HT29 = HT29 (Colon Cancer), 10 μM, 48 hours
MDA-MB-435 = MDA-MB-435 (Melanoma), 10 μM, 48 hours
NCI/ADR-RES = NCI/ADR-RES (Ovarian Cancer), 10 μM, 48 hours
OVCAR-5 = OVCAR-5 (Ovarian Cancer), 10 μM, 48 hours
CCRF-CEM = CCRF-CEM (Leukemia), 10 μM, 48 hours
OVCAR-3 = OVCAR-3 (Ovarian Cancer), 10 μM, 48 hours
RXF 393 = RXF 393 (Renal Cancer), 10 μM, 48 hours
HL-60 (TB) = HL-60 (TB) (Leukemia), 10 μM, 48 hours
SF-268 = SF-268 (CNS Cancer), 10 μM, 48 hours
HCT-116 = HCT-116 (Colon Cancer), 10 μM, 48 hours
HCT-15 = HCT-15 (Colon Cancer), 10 μM, 48 hours
IGROV1 = IGROV1 (Ovarian Cancer), 10 μM, 48 hours
SK-MEL-5 = SK-MEL-5 (Melanoma), 10 μM, 48 hours
A549/ATCC = A549/ATCC (Non-Small Cell Lung Cancer), 10 μM, 48 hours
HS 578T = HS 578T (Breast Cancer), 10 μM, 48 hours
UACC-257 = UACC-257 (Melanoma), 10 μM, 48 hours
KM12 = KM12 (Colon Cancer), 10 μM, 48 hours
HOP-62 = HOP-62 (Non-Small Cell Lung Cancer), 10 μM, 48 hours
CAKI-1 = CAKI-1 (Renal Cancer), 10 μM, 48 hours
BT-549 = BT-549 (Breast Cancer), 10 μM, 48 hours
MOLT-4 = MOLT-4 (Leukemia), 10 μM, 48 hours
786-0 = 786-0 (Renal Cancer), 10 μM, 48 hours
SK-MEL-28 = SK-MEL-28 (Melanoma), 10 μM, 48 hours
HCC-2998 = HCC-2998 (Colon Cancer), 10 μM, 48 hours
NCI-H23 = NCI-H23 (Non-Small Cell Lung Cancer), 10 μM, 48 hours
TK-10 = TK-10 (Renal Cancer), 10 μM, 48 hours
NCI-H522 = NCI-H522 (Non-Small Cell Lung Cancer), 10 μM, 48 hours
UO-31 = UO-31 (Renal Cancer), 10 μM, 48 hours
RPMI-8226 = RPMI-8226 (Leukemia), 10 μM, 48 hours

## CNc1nc2ccccc2c2c1-c1ccc(Cl)cc1C2=O [SJ-1, 9-Chloro-6-(methylamino)-11H-indeno[1,2-c]quinolin-11-one]
HT29
  growth percentage: 99.44%
MDA-MB-435
  growth percentage: 107.24%
NCI/ADR-RES
  growth percentage: 92.22%
OVCAR-5
  growth percentage: 81.54%
CCRF-CEM
  growth percentage: 101.50%
OVCAR-3
  growth percentage: 84.91%
RXF 393
  growth percentage: 97.15%
HL-60 (TB)
  growth percentage: 102.75%
SF-268
  growth percentage: 97.27%
HCT-116
  growth percentage: 88.31%
HCT-15
  growth percentage: 66.20%
IGROV1
  growth percentage: 54.41%
SK-MEL-5
  growth percentage: 80.96%
A549/ATCC
  growth percentage: 96.83%
HS 578T
  growth percentage: 85.28%
UACC-257
  growth percentage: 107.69%
KM12
  growth percentage: 66.82%
HOP-62
  growth percentage: 87.10%
CAKI-1
  growth percentage: 73.84%
BT-549
  growth percentage: 101.88%
MOLT-4
  growth percentage: 93.26%
786-0
  growth percentage: 103.34%
SK-MEL-28
  growth percentage: 114.89%
HCC-2998
  growth percentage: 57.51%
NCI-H23
  growth percentage: 86.83%
TK-10
  growth percentage: 65.31%
NCI-H522
  growth percentage: 90.50%
UO-31
  growth percentage: 56.91%
RPMI-8226
  growth percentage: 91.82%

## CC1CCN(c2nc3ccccc3c3c2-c2ccc(Cl)cc2C3=O)CC1 [SJ-6, 9-Chloro-6-(4-methylpiperidin-1-yl)-11H-indeno[1,2-c]quinolin-11-one]
HT29
  growth percentage: 104.84%
MDA-MB-435
  growth percentage: 104.53%
NCI/ADR-RES
  growth percentage: 90.28%
OVCAR-5
  growth percentage: 104.92%
CCRF-CEM
  growth percentage: 104.33%
OVCAR-3
  growth percentage: 97.59%
RXF 393
  growth percentage: 97.51%
HL-60 (TB)
  growth percentage: 98.84%
SF-268
  growth percentage: 96.49%
HCT-116
  growth percentage: 102.51%
HCT-15
  growth percentage: 97.78%
IGROV1
  growth percentage: 94.36%
SK-MEL-5
  growth percentage: 98.52%
A549/ATCC
  growth percentage: 101.69%
HS 578T
  growth percentage: 98.38%
UACC-257
  growth percentage: 106.47%
KM12
  growth percentage: 94.80%
HOP-62
  growth percentage: 64.18%
CAKI-1
  growth percentage: 83.89%
BT-549
  growth percentage: 95.52%
MOLT-4
  growth percentage: 94.41%
786-0
  growth percentage: 102.73%
SK-MEL-28
  growth percentage: 105.21%
HCC-2998
  growth percentage: 102.76%
NCI-H23
  growth percentage: 90.42%
TK-10
  growth percentage: 134.79%
NCI-H522
  growth percentage: 98.45%
UO-31
  growth percentage: 76.25%
RPMI-8226
  growth percentage: 97.99%

## O=C1c2cc(Cl)ccc2-c2c(N3CCN(C4CCCC4)CC3)nc3ccccc3c21 [SJ-14, 9-Chloro-6-(4-cyclopentylpiperazin-1-yl)-11H-indeno[1,2-c]quinolin-11-one]
HT29
  growth percentage: 93.22%
MDA-MB-435
  growth percentage: 99.93%
NCI/ADR-RES
  growth percentage: 100.39%
OVCAR-5
  growth percentage: 106.41%
CCRF-CEM
  growth percentage: 95.17%
OVCAR-3
  growth percentage: 99.54%
RXF 393
  growth percentage: 95.60%
HL-60 (TB)
  growth percentage: 103.04%
SF-268
  growth percentage: 96.39%
HCT-116
  growth percentage: 91.34%
HCT-15
  growth percentage: 89.64%
IGROV1
  growth percentage: 85.84%
SK-MEL-5
  growth percentage: 97.48%
A549/ATCC
  growth percentage: 101.56%
HS 578T
  growth percentage: 99.40%
UACC-257
  growth percentage: 98.37%
KM12
  growth percentage: 99.33%
HOP-62
  growth percentage: 108.83%
CAKI-1
  growth percentage: 93.83%
BT-549
  growth percentage: 102.74%
MOLT-4
  growth percentage: 98.39%
786-0
  growth percentage: 97.90%
SK-MEL-28
  growth percentage: 107.58%
HCC-2998
  growth percentage: 106.04%
NCI-H23
  growth percentage: 92.80%
NCI-H522
  growth percentage: 98.72%
UO-31
  growth percentage: 72.57%
RPMI-8226
  growth percentage: 94.89%

## O=C1c2cc(Cl)ccc2-c2c(N3CCN(c4ccccc4)CC3)nc3ccccc3c21 [SJ-16, 9-Chloro-6-(4-phenylpiperazin-1-yl)-11H-indeno[1,2-c]quinolin-11-one]
HT29
  growth percentage: 82.40%
MDA-MB-435
  growth percentage: 99.55%
NCI/ADR-RES
  growth percentage: 97.88%
OVCAR-5
  growth percentage: 88.56%
CCRF-CEM
  growth percentage: 93.52%
OVCAR-3
  growth percentage: 98.07%
RXF 393
  growth percentage: 72.95%
HL-60 (TB)
  growth percentage: 105.45%
SF-268
  growth percentage: 85.45%
HCT-116
  growth percentage: 78.18%
HCT-15
  growth percentage: 80.71%
IGROV1
  growth percentage: 65.13%
SK-MEL-5
  growth percentage: 99.23%
A549/ATCC
  growth percentage: 90.89%
UACC-257
  growth percentage: 98.40%
KM12
  growth percentage: 98.34%
CAKI-1
  growth percentage: 80.23%
BT-549
  growth percentage: 89.83%
MOLT-4
  growth percentage: 98.13%
786-0
  growth percentage: 81.41%
SK-MEL-28
  growth percentage: 104.82%
HCC-2998
  growth percentage: 106.23%
NCI-H23
  growth percentage: 83.34%
TK-10
  growth percentage: 115.61%
NCI-H522
  growth percentage: 80.10%
UO-31
  growth percentage: 65.02%
RPMI-8226
  growth percentage: 95.33%

Source: US20150197492A1, “NOVEL INDENO[1,2-c]QUINOLIN-11-ONE DERIVATIVES, PREPARATION METHOD AND APPLICATION THEREOF” (National Defense Medical Center, priority 2014, published 2015)
